Test results taken from patent US20090068290A1, “BIFEPRUNOX DOSES FOR TREATING SCHIZOPHRENIA” (priority 2006, published 2009).

Key:
Format in all cases: in vivo, human
[1] = tested on: adult subjects with schizophrenia; test: PANSS total score, Clinical Study Two (6-week, risperidone-referenced); conditions: LOCF
Procedure: Treatment started with a single-blind placebo lead-in period of at least three days, followed by titration from 0.25 mg up to 30 mg/day or 40 mg/day of bifeprunox for bifeprunox-treated subjects.
(§1) Rating scale assessments were performed weekly, except for week 5, to measure the change from baseline to endpoint of the PANSS total score. Other assessments included: PANSS positive symptom subscale score, PANSS negative symptom subscale score, PANSS general pschopathology subscale score, BPRS total score, BPRS psychosis score, the CGI-S score, the CGI-I score, responder rates based on the PANSS total score, and the Calgary Depression Scale for Schizophrenia (CDSS).
Subjects who completed this study had the option to continue in the long-term. […] After completing a Single-Blind placebo lead-in period of at least three days, bifeprunox-treated subjects were titrated from 0.25 mg up to 30 mg/day or 40 mg/day according to a standardized titration scheme over an eight-day period. When the assigned dose was reached, subjects were maintained at that dose for the remainder of the six week treatment period. […] Rating scale assessments for efficacy and abnormal movement disorders were done weekly except for Week 5. Safety assessments were performed at Screening, during treatment and at the end of the study. Subject satisfaction with study medication was assessed at Week 6. Samples of blood were obtained at Weeks 2, 4, and 6 for determination of bifeprunox in plasma. Blood samples were also obtained at Screening/Baseline, Week 3, and Week 6 for clinical laboratory assessments.
Diagnosis and Main Criteria for Inclusion: Male or female subjects 18-75 years of age with schizophrenia (per DSM-IV-TR criteria). Subjects had to have a total score on the PANSS between 70 and 120; at least two of four PANSS items (conceptual disorganization, hallucinatory behavior, suspiciousness, unusual thought content) had to have a score ≧4; and the score on the CGI-S had to be at least 4.

[2] = tested on: adult subjects with schizophrenia; test: PANSS negative symptom subscale score, Clinical Study Two; conditions: LOCF, ITT; for PANSS Negative Symptom Subscale Score, Trt Effect (bifeprunox—placebo): ANCOVA
Procedure: as §1, with “(CDSS). […]” for “(CDSS).”
Subjects who completed this study had the option to continue in the long-term. […] Risperidone-treated subjects were titrated from 2 mg to 6 mg daily over a three-day period and were subsequently maintained at 6 mg/day for the remainder of the treatment period. […] Blood samples were also obtained at Screening/Baseline, Week 3, and Week 6 for clinical laboratory assessments.

[3] = tested on: adult subjects with schizophrenia; test: Calgary Depression Scale for Schizophrenia (CDSS), Clinical Study Three; conditions: for CDSS Total Score, Trt Effect / Change from Baseline in CDSS Total Score, Mean (SD) / Change from Baseline in CDSS Total Score, Median / mean change (SD) from Baseline to Endpoint in CDSS score: LOCF; for CDSS score, treatment effect (bifeprunox, placebo): Endpoint LOCF; for mean change (SD) from Baseline to Endpoint in CDSS score: ITT
Excerpt: SECONDARY OBJECTIVES To assess the efficacy of bifeprunox in treating schizophrenia using the Positive Symptom sub-scale score of the PANSS, the Negative Symptom sub-scale score of the PANSS, the General Psychopathology sub-scale of the PANSS, Brief Psychiatric Rating Scale (BPRS) total score derived from the PANSS, BPRS psychosis score derived from the PANSS, the Clinical Global Impression Severity of Illness score (CGI-S), the Clinical Global Impression Improvement score (CGI-I), CGI-I responder rate, PANSS responder rate based on the PANSS total score, Calgary Depression Scale for Schizophrenia (CDSS), and Subject Satisfaction rating.
There were four treatment arms in this study, approximately 144 subjects per arm. […] After completing the Single-Blind Placebo Lead-in Period of at least three days, bifeprunox-treated subjects were titrated from 0.25 mg up to 20 mg/day or 30 mg/day according to a standardized titration scheme over a seven- or eight-day period, respectively. When the assigned dose was reached, subjects were maintained at that dose for the remainder of the six week treatment period. […] Subjects were hospitalized (if not already inpatients) after eligibility for study entry was verified, starting from the Screening Visit until at least 10 days after Baseline. Subjects could be hospitalized longer than 10 days if considered medically necessary by the Investigator. Rating scale assessments for efficacy and abnormal movement disorders were done weekly except for Week 5. […] Subject satisfaction with study medication was assessed at Week 6.

[4] = Bifeprunox 30 mg, Week 6/Endpoint
[5] = Bifeprunox 40 mg, Week 6/Endpoint

## O=c1[nH]c2cccc(N3CCN(Cc4cccc(-c5ccccc5)c4)CC3)c2o1 [Bifeprunox, 7-[4-([1,1′-biphenyl]-3-ylmethyl)-1-piperazinyl]-2(3H)-benzoxazolone]
[1]; Bifeprunox 40 mg, Week 6/Endpoint, ITT, ANCOVA
  PANSS Total Score, Trt Effect (difference between bifeprunox and placebo): −3.2
[1]; bifeprunox 30 mg (b57 prints 20 mg)
  difference from placebo, change from Baseline to Endpoint in PANSS total score: statistically significant difference from placebo
[1]; bifeprunox 30 mg
  greater improvement from Baseline to Endpoint in PANSS total score compared with placebo: 5.9 point
[1]; bifeprunox 30 mg, week 2
  PANSS Total Score, treatment effect versus placebo: −5.6
[1]; bifeprunox 30 mg, week 4
  PANSS Total Score, treatment effect versus placebo: −6.3
[1]; bifeprunox 40 mg
  difference from placebo, change from Baseline to Endpoint in PANSS total score: not significantly different from the placebo group
[2]; Bifeprunox 30 mg, Week 1
  Change from Baseline in PANSS Negative Symptom Subscale Score, Mean (SD): −1.6 (3.7)
  Change from Baseline in PANSS Negative Symptom Subscale Score, Median: −1
[2]; Bifeprunox 30 mg, Week 2
  Change from Baseline in PANSS Negative Symptom Subscale Score, Mean (SD): 2.6 (4.4)
  Change from Baseline in PANSS Negative Symptom Subscale Score, Median: −2
[2]; Bifeprunox 30 mg, Week 3
  Change from Baseline in PANSS Negative Symptom Subscale Score, Mean (SD): −3.0 (5.0)
  Change from Baseline in PANSS Negative Symptom Subscale Score, Median: −3
[2]; Bifeprunox 30 mg, Week 4
  Change from Baseline in PANSS Negative Symptom Subscale Score, Mean (SD): −3.1 (5.3)
  Change from Baseline in PANSS Negative Symptom Subscale Score, Median: −2
[2]; [4]
  Change from Baseline in PANSS Negative Symptom Subscale Score, Mean (SD): −3.1 (5.6)
  Change from Baseline in PANSS Negative Symptom Subscale Score, Median: −2
  PANSS Negative Symptom Subscale Score, Trt Effect (bifeprunox—placebo): −1.4
[2]; Bifeprunox 40 mg, Week 1
  Change from Baseline in PANSS Negative Symptom Subscale Score, Mean (SD): −1.2 (3.3)
  Change from Baseline in PANSS Negative Symptom Subscale Score, Median: −1
[2]; Bifeprunox 40 mg, Week 2
  Change from Baseline in PANSS Negative Symptom Subscale Score, Mean (SD): −1.9 (4.0)
  Change from Baseline in PANSS Negative Symptom Subscale Score, Median: −2
[2]; Bifeprunox 40 mg, Week 3
  Change from Baseline in PANSS Negative Symptom Subscale Score, Mean (SD): −2.2 (4.7)
  Change from Baseline in PANSS Negative Symptom Subscale Score, Median: −1
[2]; Bifeprunox 40 mg, Week 4
  Change from Baseline in PANSS Negative Symptom Subscale Score, Mean (SD): −2.1 (4.9)
  Change from Baseline in PANSS Negative Symptom Subscale Score, Median: −1
[2]; [5]
  Change from Baseline in PANSS Negative Symptom Subscale Score, Mean (SD): −2.2 (5.4)
  Change from Baseline in PANSS Negative Symptom Subscale Score, Median: −1
  PANSS Negative Symptom Subscale Score, Trt Effect (bifeprunox—placebo): −0.9
[3]; 20 mg versus placebo, Week 6, Endpoint
  CDSS Total Score, Trt Effect: −0.54
[3]; 20 mg, Week 1
  Change from Baseline in CDSS Total Score, Mean (SD): −0.86 (2.87)
  Change from Baseline in CDSS Total Score, Median: 0.0
[3]; 20 mg, Week 2
  Change from Baseline in CDSS Total Score, Mean (SD): −1.19 (3.30)
  Change from Baseline in CDSS Total Score, Median: −1.0
[3]; 20 mg, Week 3
  Change from Baseline in CDSS Total Score, Mean (SD): −1.41 (3.72)
  Change from Baseline in CDSS Total Score, Median: −1.0
[3]; 20 mg, Week 4
  Change from Baseline in CDSS Total Score, Mean (SD): −1.35 (3.66)
  Change from Baseline in CDSS Total Score, Median: −1.0
[3]; 20 mg, Week 6, Endpoint
  Change from Baseline in CDSS Total Score, Mean (SD): −1.30 (3.85)
  Change from Baseline in CDSS Total Score, Median: 0.0
[3]; 30 mg versus placebo, Week 6, Endpoint
  CDSS Total Score, Trt Effect: −0.34
[3]; 30 mg, Week 1
  Change from Baseline in CDSS Total Score, Mean (SD): −0.77 (2.63)
  Change from Baseline in CDSS Total Score, Median: 0.0
[3]; 30 mg, Week 2
  Change from Baseline in CDSS Total Score, Mean (SD): −0.69 (2.97)
  Change from Baseline in CDSS Total Score, Median: 0.0
[3]; 30 mg, Week 3
  Change from Baseline in CDSS Total Score, Mean (SD): −0.60 (3.10)
  Change from Baseline in CDSS Total Score, Median: 0.0
[3]; 30 mg, Week 4
  Change from Baseline in CDSS Total Score, Mean (SD): −0.65 (3.07)
  Change from Baseline in CDSS Total Score, Median: 0.0
[3]; 30 mg, Week 6, Endpoint
  Change from Baseline in CDSS Total Score, Mean (SD): −0.79 (3.02)
  Change from Baseline in CDSS Total Score, Median: −1.0
[3]; bifeprunox 20 mg (first mention)
  CDSS score, treatment effect (bifeprunox, placebo): −0.54
[3]; bifeprunox 20 mg
  mean change (SD) from Baseline to Endpoint in CDSS score: −1.30 (3.85)
[3]; bifeprunox 30 mg
  mean change (SD) from Baseline to Endpoint in CDSS score: −0.79 (3.02)
[3]; bifeprunox
  CDSS score, treatment effect (bifeprunox, placebo): −0.34
